According to PubChem BioAssay (NCI):
Values joined by “and” are separate entries in the source; they are usually repeats but may differ in a detail not shown here. Equal entries are not always repeated.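 How tested: cells in 96-well plates exposed to compound for 48 hours at five concentrations. At the GI50, growth is halved. TGI denotes the concentration required for complete inhibition of growth.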

Assays:
Assay in all cases: NCI-60 cell line screen, 48 h
SF-295 CNS = system: SF-295 CNS
LOX IMVI melanoma = system: LOX IMVI melanoma
SNB-75 CNS = system: SNB-75 CNS
KM12 colon = system: KM12 colon
SW-620 colon = system: SW-620 colon
MCF7 breast = system: MCF7 breast
SF-268 CNS = system: SF-268 CNS
UACC-62 melanoma = system: UACC-62 melanoma
SK-MEL-5 melanoma = system: SK-MEL-5 melanoma
SK-MEL-2 melanoma = system: SK-MEL-2 melanoma
OVCAR-8 ovarian = system: OVCAR-8 ovarian
HS 578T breast = system: HS 578T breast
IGROV1 ovarian = system: IGROV1 ovarian
TK-10 renal = system: TK-10 renal
K-562 leukemia = system: K-562 leukemia
786-0 renal = system: 786-0 renal
HCT-15 colon = system: HCT-15 colon
DU-145 prostate = system: DU-145 prostate
RPMI-8226 leukemia = system: RPMI-8226 leukemia
U251 CNS = system: U251 CNS
A549 NSCLC = system: A549 NSCLC
OVCAR-3 ovarian = system: OVCAR-3 ovarian
COLO 205 colon = system: COLO 205 colon
SN12C renal = system: SN12C renal
NCI-H23 lung = system: NCI-H23 lung
MALME-3M melanoma = system: MALME-3M melanoma
T-47D breast = system: T-47D breast
HOP-62 NSCLC = system: HOP-62 NSCLC
MDA-MB-231 breast = system: MDA-MB-231 breast
OVCAR-4 ovarian = system: OVCAR-4 ovarian
HOP-92 NSCLC = system: HOP-92 NSCLC
CCRF-CEM leukemia = system: CCRF-CEM leukemia
HCT-116 colon = system: HCT-116 colon
NCI-H460 lung = system: NCI-H460 lung
RXF 393 renal = system: RXF 393 renal
UO-31 renal = system: UO-31 renal
HL-60(TB) leukemia = system: HL-60(TB) leukemia
MOLT-4 leukemia = system: MOLT-4 leukemia
SR leukemia = system: SR leukemia
MDA-MB-435 = system: MDA-MB-435
NCI-H226 lung = system: NCI-H226 lung
SNB-19 CNS = system: SNB-19 CNS
M14 melanoma = system: M14 melanoma
BT-549 breast = system: BT-549 breast
ACHN renal = system: ACHN renal
SK-MEL-28 melanoma = system: SK-MEL-28 melanoma
MDA-N = system: MDA-N
SF-539 CNS = system: SF-539 CNS
HCC-2998 colon = system: HCC-2998 colon
NCI-H522 lung = system: NCI-H522 lung
HT29 colon = system: HT29 colon
NCI/ADR-RES ovarian = system: NCI/ADR-RES ovarian
PC-3 prostate = system: PC-3 prostate
UACC-257 melanoma = system: UACC-257 melanoma
CAKI-1 renal = system: CAKI-1 renal
EKVX NSCLC = system: EKVX NSCLC
SK-OV-3 ovarian = system: SK-OV-3 ovarian
OVCAR-5 ovarian = system: OVCAR-5 ovarian
A498 renal = system: A498 renal

## COc1ccccc1CNCCCCCNCCCCCCCCCCNCCCCCNCc1ccccc1OC
SF-295 CNS
  TGI: > 100000 nM
LOX IMVI melanoma
  TGI: 30300 nM
SNB-75 CNS
  TGI: 70300 nM
KM12 colon
  TGI: 58400 nM
SW-620 colon
  TGI: > 100000 nM
MCF7 breast
  TGI: 32700 nM
SF-268 CNS
  TGI: > 100000 nM
UACC-62 melanoma
  TGI: > 100000 nM
SK-MEL-5 melanoma
  TGI: > 100000 nM
SK-MEL-2 melanoma
  TGI: 34700 nM
OVCAR-8 ovarian
  TGI: 77700 nM
HS 578T breast
  TGI: 5780 nM
IGROV1 ovarian
  TGI: 45000 nM
TK-10 renal
  TGI: > 100000 nM
K-562 leukemia
  TGI: 31700 nM
786-0 renal
  TGI: 42100 nM
HCT-15 colon
  TGI: > 100000 nM
DU-145 prostate
  TGI: 33500 nM
RPMI-8226 leukemia
  TGI: > 100000 nM
U251 CNS
  TGI: 32900 nM
A549 NSCLC
  TGI: 58800 nM
OVCAR-3 ovarian
  TGI: > 100000 nM
COLO 205 colon
  TGI: > 100000 nM
SN12C renal
  TGI: 79600 nM
NCI-H23 lung
  TGI: > 100000 nM
MALME-3M melanoma
  TGI: 61300 nM
T-47D breast
  TGI: > 100000 nM
HOP-62 NSCLC
  TGI: 31800 nM
MDA-MB-231 breast
  TGI: 31600 nM
OVCAR-4 ovarian
  TGI: > 100000 nM
HOP-92 NSCLC
  TGI: > 100000 nM
CCRF-CEM leukemia
  TGI: 32400 nM
HCT-116 colon
  TGI: 24100 nM
NCI-H460 lung
  TGI: 26800 nM
RXF 393 renal
  TGI: 96300 nM
UO-31 renal
  TGI: > 100000 nM
HL-60(TB) leukemia
  TGI: 43700 nM
MOLT-4 leukemia
  TGI: 26500 nM
SR leukemia
  TGI: 32200 nM
MDA-MB-435
  TGI: > 100000 nM
NCI-H226 lung
  TGI: 34300 nM
SNB-19 CNS
  TGI: > 100000 nM
M14 melanoma
  TGI: > 100000 nM
BT-549 breast
  TGI: 45500 nM
ACHN renal
  TGI: > 100000 nM
SK-MEL-28 melanoma
  TGI: > 100000 nM
MDA-N
  TGI: 34500 nM
SF-539 CNS
  TGI: 21200 nM
HCC-2998 colon
  TGI: 39200 nM
NCI-H522 lung
  TGI: 42200 nM
HT29 colon
  TGI: > 100000 nM

## c1cncc(CNCCN2CCNCC2)c1
SF-295 CNS
  TGI: > 100000 nM
LOX IMVI melanoma
  TGI: > 100000 nM
SNB-75 CNS
  TGI: > 100000 nM
KM12 colon
  TGI: > 100000 nM
SW-620 colon
  TGI: > 100000 nM
MCF7 breast
  TGI: > 100000 nM
SF-268 CNS
  TGI: > 100000 nM
UACC-62 melanoma
  TGI: > 100000 nM
SK-MEL-5 melanoma
  TGI: > 100000 nM
SK-MEL-2 melanoma
  TGI: > 100000 nM
OVCAR-8 ovarian
  TGI: > 100000 nM
HS 578T breast
  TGI: > 100000 nM
IGROV1 ovarian
  TGI: > 100000 nM
TK-10 renal
  TGI: > 100000 nM
K-562 leukemia
  TGI: > 100000 nM
786-0 renal
  TGI: > 100000 nM
HCT-15 colon
  TGI: > 100000 nM
RPMI-8226 leukemia
  TGI: > 100000 nM
U251 CNS
  TGI: > 100000 nM
A549 NSCLC
  TGI: > 100000 nM
OVCAR-3 ovarian
  TGI: > 100000 nM
COLO 205 colon
  TGI: > 100000 nM
SN12C renal
  TGI: > 100000 nM
NCI-H23 lung
  TGI: > 100000 nM
MALME-3M melanoma
  TGI: > 100000 nM
T-47D breast
  TGI: > 100000 nM
HOP-62 NSCLC
  TGI: > 100000 nM
NCI/ADR-RES ovarian
  TGI: > 100000 nM
PC-3 prostate
  TGI: > 100000 nM
MDA-MB-231 breast
  TGI: > 100000 nM
OVCAR-4 ovarian
  TGI: > 100000 nM
HOP-92 NSCLC
  TGI: > 100000 nM
HCT-116 colon
  TGI: > 100000 nM
NCI-H460 lung
  TGI: > 100000 nM
RXF 393 renal
  TGI: > 100000 nM
UO-31 renal
  TGI: > 100000 nM
UACC-257 melanoma
  TGI: > 100000 nM
CAKI-1 renal
  TGI: > 100000 nM
MOLT-4 leukemia
  TGI: > 100000 nM
EKVX NSCLC
  TGI: > 100000 nM
SR leukemia
  TGI: > 100000 nM
MDA-MB-435
  TGI: > 100000 nM
SK-OV-3 ovarian
  TGI: > 100000 nM
OVCAR-5 ovarian
  TGI: > 100000 nM
NCI-H226 lung
  TGI: > 100000 nM
SNB-19 CNS
  TGI: > 100000 nM
M14 melanoma
  TGI: > 100000 nM
BT-549 breast
  TGI: > 100000 nM
A498 renal
  TGI: > 100000 nM
ACHN renal
  TGI: > 100000 nM
SK-MEL-28 melanoma
  TGI: > 100000 nM
MDA-N
  TGI: > 100000 nM
SF-539 CNS
  TGI: > 100000 nM
NCI-H522 lung
  TGI: > 100000 nM
HT29 colon
  TGI: > 100000 nM

## CC(C)NCCCNc1c2ccccc2nc2cccc([N+](=O)[O-])c12
SF-295 CNS
  TGI: 45.1 nM and 173 nM
LOX IMVI melanoma
  GI50: 15.3 nM
  TGI: 25.6 nM and 116 nM
SNB-75 CNS
  GI50: 16.1 nM
  TGI: 97.4 nM and 45.2 nM
KM12 colon
  TGI: 40.9 nM and 28.4 nM
SW-620 colon
  TGI: 209 nM and 237 nM
MCF7 breast
  TGI: 43 nM
SF-268 CNS
  GI50: 16.7 nM
  TGI: 32.3 nM and 182 nM
UACC-62 melanoma
  TGI: 37.4 nM and 31 nM
SK-MEL-5 melanoma
  TGI: 16.3 nM
SK-MEL-2 melanoma
  TGI: 29.9 nM
OVCAR-8 ovarian
  TGI: 55.5 nM
HS 578T breast
  GI50: 21.8 nM
  TGI: 290 nM and 113 nM
IGROV1 ovarian
  TGI: 35.2 nM and 134 nM
TK-10 renal
  TGI: 463 nM and 70.8 nM
K-562 leukemia
  TGI: 16.9 nM and 10.4 nM
786-0 renal
  GI50: 10.8 nM
  TGI: 32.5 nM and 70.4 nM
HCT-15 colon
  TGI: > 100000 nM
RPMI-8226 leukemia
  TGI: 7.96 nM and 26.2 nM
U251 CNS
  TGI: 119 nM and 49.6 nM
A549 NSCLC
  TGI: 150 nM and 58.5 nM
OVCAR-3 ovarian
  TGI: 37 nM
COLO 205 colon
  TGI: 13 nM and 16.8 nM
SN12C renal
  TGI: 150 nM
NCI-H23 lung
  TGI: 9.08 nM
MALME-3M melanoma
  GI50: 12 nM
  TGI: 27.2 nM and 47.1 nM
T-47D breast
  TGI: 58.2 nM and 96.8 nM
HOP-62 NSCLC
  TGI: 80.9 nM and 24.4 nM
NCI/ADR-RES ovarian
  GI50: 1860 nM
  TGI: 4650 nM and 24400 nM
PC-3 prostate
  TGI: 38 nM
MDA-MB-231 breast
  GI50: 10.7 nM
  TGI: 47 nM and 114 nM
OVCAR-4 ovarian
  TGI: 23.6 nM
HOP-92 NSCLC
  TGI: 39.7 nM
CCRF-CEM leukemia
  GI50: 11.8 nM
  TGI: 85.4 nM and 64.4 nM
NCI-H460 lung
  TGI: 103 nM
RXF 393 renal
  TGI: 18.3 nM
UO-31 renal
  GI50: 30.6 nM
  TGI: 451 nM and 148 nM
HL-60(TB) leukemia
  GI50: 10.2 nM
UACC-257 melanoma
  GI50: 19.4 nM
  TGI: 170 nM and 45.8 nM
CAKI-1 renal
  TGI: 239 nM
MOLT-4 leukemia
  TGI: 25.4 nM and 16.9 nM
EKVX NSCLC
  GI50: 37.2 nM
  TGI: 79.1 nM and 268 nM
MDA-MB-435
  TGI: 22.5 nM and 18.6 nM
SK-OV-3 ovarian
  TGI: 394 nM and 273 nM
OVCAR-5 ovarian
  TGI: 145 nM and 18.3 nM
NCI-H226 lung
  TGI: 90.3 nM
SNB-19 CNS
  GI50: 11.2 nM
M14 melanoma
  TGI: 24.4 nM
BT-549 breast
  GI50: 22.2 nM
  TGI: 157 nM and 59.9 nM
A498 renal
  GI50: 12.3 nM
  TGI: 32.8 nM and 43.2 nM
ACHN renal
  TGI: 57 nM and 106 nM
SK-MEL-28 melanoma
  GI50: 24.4 nM
  TGI: 289 nM and 74.8 nM
MDA-N
  TGI: 29.2 nM
SF-539 CNS
  GI50: 14.2 nM
  TGI: 228 nM and 40.9 nM
HCC-2998 colon
  TGI: 16.5 nM
HT29 colon
  TGI: 21.6 nM
